Marks after values point to notes of the source that are not given here.

The test system of data set [1] is wild-type MtDXR. The settings on record: ref Liu and Murkin 17; cited from earlier work.
In data set [2] the target is wild-type MtDXR (Mycobacterium tuberculosis, UniProt P9WNS1). Format: binding.
The target of data set [3] is wild-type MtDXR. The settings on record: pH 7.6; cited from earlier work.
A further data set addresses DXR. The settings on record: read-out: Ki values; cited from earlier work.
In a further data set the test system is P. falciparum. The settings on record: cited from earlier work.
The next data set deals with M. tuberculosis. The settings on record: cited from earlier work.
In data set [4] the test system is CC(=O)[C@@H](O)[C@H](O)COP(=O)(O)O. The experiment in a line: purified protein, by the assay type. The settings on record: pH 7.5; 25.0 °C.

Sequence of wild-type MtDXR (Mycobacterium tuberculosis, UniProt P9WNS1) (P9WNS1 1-389): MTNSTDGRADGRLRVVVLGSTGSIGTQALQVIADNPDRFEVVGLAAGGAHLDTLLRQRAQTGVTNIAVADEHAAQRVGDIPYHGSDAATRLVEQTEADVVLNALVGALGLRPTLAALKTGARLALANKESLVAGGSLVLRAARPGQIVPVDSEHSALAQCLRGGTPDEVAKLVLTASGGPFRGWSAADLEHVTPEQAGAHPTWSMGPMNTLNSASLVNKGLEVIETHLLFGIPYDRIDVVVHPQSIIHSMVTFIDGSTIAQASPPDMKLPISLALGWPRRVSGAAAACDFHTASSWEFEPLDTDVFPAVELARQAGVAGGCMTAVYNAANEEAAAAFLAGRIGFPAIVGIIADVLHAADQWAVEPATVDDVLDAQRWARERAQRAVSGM

With `CC(=O)[C@@H](O)[C@H](O)COP(=O)(O)O` [DXP, 1-deoxy-D-xylulose 5-phosphate], the Km (in general, the concentration of substrate that gives half-maximal velocity) in the data set with wild-type MtDXR [1] is 115 ± 7 µM.

For `O=CN(O)CCCP(=O)(O)O` [fosmidomycin], the “enthalpy share of total binding energy” value at wild-type MtDXR [2] was determined as 50%. On wild-type MtDXR [2] (pH 7.5), the “ΔG°” value is reported as “–9.82 ± 0.08 kcal/mol”, the “ΔH°” value is listed as “–4.8 ± 0.7 kcal/mol” and the “–TΔS°” value is listed as “–5.0 ± 0.7 kcal/mol”. Further, on wild-type MtDXR [3], the Kd (in general, the equilibrium constant for the complex coming apart) is 290 nM; the “ΔG°” value was “–8.34 ^e kcal/mol”; the “ΔH°” value is “–6.0 ^e kcal/mol”; the “–TΔS°” value is recorded as “–2.3 ^e kcal/mol”. The inhibition constant Ki (usually the dissociation constant of the complex between target and ligand, obtained from inhibition or displacement) on DXR is 10 to 100 nM. Besides, the “treatment of malaria caused by P. falciparum” value with P. falciparum is “effective”. For the same compound, the “activity against M. tuberculosis” value in the data set with M. tuberculosis is “poorly active”.

In the case of (Mycobacterium tuberculosis H37Rv), in data set [4], the Km was found to be 137 ± 12 µM; the kcat (commonly the maximal rate divided by the concentration of active sites) is 4.2 ± 0.2 s⁻¹; the kcat/Km – broadly, the turnover number divided by the Michaelis constant – stood at 31000 ± 2000 M⁻¹ s⁻¹.

The record behind these values is paper PMC4045324 (Biochemistry, 2014).
